Tests used:
Format in all cases: cell-based
[1] = test system: Hep3B hepatocellular carcinoma cell line; assay: MTS cell viability assay (NCI-60 methodology), GI50/LC50, Hep3B; settings: Homo sapiens, 48 h, Hep3B cells, 2 days incubation with compound
Method in brief: (§1)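 Cells were plated 24 h before treatment, and a time-zero plate was read by MTS. Five 2-fold dilutions plus DMSO were then added for 48 h, and viability was measured by MTS. GI50 is from [(Ti−Tz)/(C−Tz)]×100=50 and LC50 from [(Ti−Tz)/Tz]×100=−50.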

[2] = test system: NCI-H460 human lung cancer cell line; assay: MTS cell viability assay (NCI-60 methodology), GI50/LC50, NCI-H460; settings: 48 h, NCI-H460 cells, 2 days incubation with compound
Method in brief: as §1

[3] = test system: SW480 colon adenocarcinoma cell line; assay: MTS cell viability assay (NCI-60 methodology), GI50/LC50, SW480; settings: Homo sapiens, 48 h, SW480 cells, 2 days incubation with compound
Method in brief: as §1

[4] = test system: hepatocellular carcinoma cell line Hep3B; assay: Growth inhibition of Hep3B cells, 48 hr treatment, Hoechst 33342 nucleus count (GE InCell 2200); settings: Homo sapiens
Method in brief: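 Compound exposure lasted 48 hr at 37° C, 5% CO2. Surviving nuclei were counted after Hoechst 33342 staining, and survival was expressed as the treated/non-treated cell number ratio, including the ratio at 10 μM compound.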

[5] = Table 5, ratio of number of tumor cells treated with 10 μM compound to non-treated cells
[6] = Table 6, ratio of number of tumor cells treated with 10 μM compound to non-treated cells

Compound | GI50 [1] [µM] | LC50 [1] [µM] | GI50 [2] [µM] | LC50 (concentration giving 50% net cell loss versus time zero, NCI-60 definition) [2] [µM] | GI50 [3] [µM] | LC50 (NCI-60 lethal concentration, 50% net cell loss vs time zero) [3] [µM] | viability at 10 µM [4, 5] [%] | viability at 10 µM [4, 6] [%] | viability at 10 µM ([4]; Table 1, ratio of number of tumor cells treated with 10 μM compound to non-treated cells) [%]
CCCOc1ccc(-c2nc(NC(=O)c3ccc([N+](=O)[O-])s3)sc2Oc2cccc(C(F)(F)F)c2)cc1 [Compound 5-17, 5-nitro-N-(4-(4-propoxyphenyl)-5-(3-(trifluoromethyl)phenoxy)thiazol-2-yl)thiophene-2-carboxamide] | 0.3 | 1.6 | 1.16 | 2.29 | 1.26 | 2.41 | 37 |  | 
COc1ccc(-c2sc(NC(=O)c3ccc([N+](=O)[O-])s3)nc2-c2ccc(C(C)(C)C)cc2)cc1 [Compound 6-54, N-(4-(4-(tert-butyl)phenyl)-5-(4-methoxyphenyl)thiazol-2-yl)-5-nitrothiophene-2-carboxamide] | 0.61 | 0.71 | 0.44 | 1.59 | 1.38 | 2.35 |  | 25 | 
CCOc1ccc(-c2nc(NC(=O)c3ccc([N+](=O)[O-])s3)sc2Oc2cccc(C(F)(F)F)c2)cc1 [Compound 5-23, N-(4-(4-ethoxyphenyl)-5-(3-(trifluoromethyl)phenoxy)thiazol-2-yl)-5-nitrothiophene-2-carboxamide] | 1.22 | 3.96 | 2.49 | 4.43 | 6.42 |  | 30 |  | 
CCC(CC)Oc1ccccc1-c1nnc(NC(=O)Cc2ccc3nc(N)sc3c2)s1 [Compound 1-22, 2-(2-aminobenzo[d]thiazol-6-yl)-N-(5-(2-(pentan-3-yloxy)phenyl)-1,3,4-thiadiazol-2-yl)acetamide] | 0.09 | 8.36 | 2.67 |  | 1.23 |  |  |  | 66
CCCOc1ccc(-c2nc(NC(=O)c3ccc([N+](=O)[O-])s3)sc2-c2ccc(F)cc2)cc1 [Compound 6-16, N-(5-(4-fluorophenyl)-4-(4-propoxyphenyl)thiazol-2-yl)-5-nitrothiophene-2-carboxamide] | 1.24 | 1.83 | 0.86 | 1.75 | 1.89 | 2.79 |  | 59 | 
CCCCCOc1ccc(-c2nc(NC(=O)c3ccc([N+](=O)[O-])s3)sc2Oc2ccccc2)cc1 [Compound 5-76, 5-nitro-N-(4-(4-(pentyloxy)phenyl)-5-phenoxythiazol-2-yl)thiophene-2-carboxamide] | 0.56 | 1.72 | 0.74 | 1.52 | 1.27 | 5.82 | 38 |  | 
CCC(C)(C)c1ccc(-c2nc(NC(=O)c3ccc([N+](=O)[O-])s3)sc2-c2ccc(F)cc2F)cc1 [Compound 6-47, N-(5-(2,4-difluorophenyl)-4-(4-(tert-pentyl)phenyl)thiazol-2-yl)-5-nitrothiophene-2-carboxamide] | 0.59 | 0.66 | 0.58 | 0.93 | 0.64 | 1.39 |  | 33 | 
CCCOc1ccc(-c2nc(NC(=O)c3ccc([N+](=O)[O-])s3)sc2Oc2ccc(F)cc2)cc1 [Compound 5-30, N-(5-(4-fluorophenoxy)-4-(4-propoxyphenyl)thiazol-2-yl)-5-nitrothiophene-2-carboxamide] | 0.92 | 2.23 | 0.7 | 2.15 | 0.53 | 2.82 | 40 |  | 
Cc1ccc(-c2nc(NC(=O)c3ccc([N+](=O)[O-])s3)sc2-c2cc(C(F)(F)F)cc(C(F)(F)F)c2)cc1 [Compound 6-5, N-(5-(3,5-bis(trifluoromethyl)phenyl)-4-(p-tolyl)thiazol-2-yl)-5-nitrothiophene-2-carboxamide] | 0.95 | 1.08 | 1.12 | 1.63 | 1.2 | 1.41 |  | 46 | 
O=C(Nc1nc(-c2ccc(Br)cc2)c(Oc2ccc(C(F)(F)F)cc2)s1)c1ccc([N+](=O)[O-])s1 [Compound 5-7, N-(4-(4-bromophenyl)-5-(4-(trifluoromethyl)phenoxy)thiazol-2-yl)-5-nitrothiophene-2-carboxamide] | 0.63 | 1.23 | 0.85 | 1.85 | 0.32 | 2.8 | 31 |  | 
O=C(Nc1nc(-c2ccc(F)cc2)c(Oc2ccccc2OC(F)(F)F)s1)c1ccc([N+](=O)[O-])s1 [Compound 5-32, N-(4-(4-fluorophenyl)-5-(2-(trifluoromethoxy)phenoxy)thiazol-2-yl)-5-nitrothiophene-2-carboxamide] | 0.46 | 2.17 | 0.69 | 1.73 | 0.4 | 2.26 | 48 |  | 
CCCOc1ccc(-c2nc(NC(=O)c3ccc([N+](=O)[O-])s3)sc2Oc2cccc(F)c2)cc1 [Compound 5-24, N-(5-(3-fluorophenoxy)-4-(4-propoxyphenyl)thiazol-2-yl)-5-nitrothiophene-2-carboxamide] | 0.95 | 2.07 | 1.57 | 3.79 | 1.14 | 4.23 | 28 |  | 
CCCOc1ccc(-c2nc(NC(=O)c3ccc([N+](=O)[O-])o3)sc2Oc2ccccc2)cc1 [Compound 5-48, 5-nitro-N-(5-phenoxy-4-(4-propoxyphenyl)thiazol-2-yl)furan-2-carboxamide] | 5.22 | 9.41 | 1.4 |  | 1.81 |  | 37 |  | 
CCC(C)(C)c1ccc(-c2nc(NC(=O)c3ccc([N+](=O)[O-])s3)sc2Oc2ccc(F)cc2)cc1 [Compound 5-63, N-(5-(4-fluorophenoxy)-4-(4-(tert-pentyl)phenyl)thiazol-2-yl)-5-nitrothiophene-2-carboxamide] | 0.43 | 0.95 | 0.68 | 1.11 | 0.88 | 1.85 | 37 |  | 
CCOc1ccc(-c2nc(NC(=O)c3ccc([N+](=O)[O-])s3)sc2Oc2ccc(C(C)(C)C)cc2)cc1 [Compound 5-29, N-(5-(4-(tert-butyl)phenoxy)-4-(4-ethoxyphenyl)thiazol-2-yl)-5-nitrothiophene-2-carboxamide] | 1.84 | 3.86 | 3.24 | 9.12 | 3.34 | 9.95 | 42 |  | 
